Experimental data from US20110045101A1, “FUNGICIDAL SUBSTITUTED AZOLES” (E.I. Du Pont De Nemours and Company, priority 2009, published 2011).
Marks after values point to notes of the source that are not given here.

What was measured:
Assay type in all cases: in vivo
Conditions in all cases: 100 = 100% disease control
[1] = test system: Septoria tritici; experiment: Test G: wheat leaf blotch on wheat seedlings, sprayed the day before inoculation, visual disease rating
Procedure, shortened: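 Disease was rated visually after Septoria tritici inoculation, 48 h saturated incubation at 24°C and 19 days in a 20°C growth chamber. Inoculation followed one day after run-off spraying of seedlings with compound at 200 ppm (≈500 g/ha) or, where marked, 40 ppm, formulated in acetone/water with surfactant.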

[2] = test system: Erysiphe graminis f. sp. tritici; experiment: Test J: wheat powdery mildew on wheat seedlings, sprayed the day before inoculation, visual disease rating
Procedure, shortened: (§1)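 Spray suspension: acetone 3% of final volume, then 50/50 acetone/water plus 250 ppm Trem® 014. Applied to run-off on seedlings at 200 ppm (≈500 g/ha); starred entries tested at 40 ppm.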

[3] = test system: Septoria nodorum; experiment: Test F: wheat glume blotch on wheat seedlings, sprayed the day before inoculation, visual disease rating
Procedure, shortened: as §1

[4] = test system: Alternaria solani; experiment: Test D: tomato early blight, sprayed the day before inoculation, visual disease rating
Procedure, shortened: as §1

[5] = test system: Puccinia recondita f. sp. tritici; experiment: Test I: wheat leaf rust on wheat seedlings, sprayed the day before inoculation, visual disease rating
Procedure, shortened: as §1

[6] = test system: Botrytis cinerea; experiment: Test C: tomato Botrytis on tomato seedlings, sprayed the day before inoculation, visual disease rating
Procedure, shortened: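 Spray to run-off on tomato seedlings; test conc. 200 ppm (≈500 g/ha), some entries 40 ppm. Formulation: acetone 3% of final vol., then acetone/water 50:50 + 250 ppm polyhydric alcohol ester surfactant.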

[7] = 200 ppm, 0 = no control relative to controls
[8] = 40 ppm (marked *), 0 = no control

Row | SMILES | Test G disease control rating [1, 7] | Test J disease control rating [2, 7] | Test F disease control rating [3, 7] | Test D disease control rating [4, 7] | Test I disease control rating [5, 7] | Test C disease control rating [6, 7] | Test G disease control rating ([1]; 200 ppm, 0 = no control) | Test J disease control rating ([2]; 200 ppm, 0 = no control) | Test F disease control rating ([3]; 200 ppm, 0 = no control) | Test D disease control rating ([4]; 200 ppm, 0 = no control) | Test I disease control rating ([5]; 200 ppm, 0 = no control) | Test C disease control rating ([6]; 200 ppm, 0 = no control) | further results
1 | Fc1cccc(F)c1-c1c(Cl)nc(Br)n1-c1ccc(Br)cc1 [compound 66] | 94% | 99% | 99% | 100% | 99% | 99% |  |  |  |  |  |  | 
2 | COc1cc(F)c(-c2c(Cl)nc(C)n2-c2ccc(F)cc2)c(F)c1 [compound 158] |  |  |  |  |  |  | 97% | 100% | 96% | 100% | 100% | 99% | 
3 | COc1cc(F)c(-c2c(Cl)nc(I)n2-c2ccc(Cl)c(F)c2)c(F)c1 [compound 241] |  |  |  |  |  |  | 96% | 93% | 100% | 100% | 96% | 100% | 
4 | Fc1cc(-n2c(Cl)nc(Cl)c2-c2c(F)cccc2F)ccc1Cl [compound 225] |  |  |  |  |  |  | 98% | 100% | 0% | 100% | 99% | 96% | 
5 | COc1nc(Cl)c(-c2c(Cl)nc(Cl)n2-c2ccc(Cl)c(F)c2)s1 [compound 456] | 88% | 43% | 0% | 0% | 0% | 0% |  |  |  |  |  |  | 
6 | COc1cc(F)c(-c2c(C)ncn2-c2ccc(Cl)c(F)c2)c(F)c1 [compound 46] |  |  |  |  |  |  |  |  |  |  |  |  | Test G disease control rating ([1]; 40 ppm (marked *)): 83* %; Test J disease control rating ([2]; 40 ppm (marked *)): 78* %; Test F disease control rating ([3]; 40 ppm (marked *)): 0* %; Test D disease control rating ([4]; 40 ppm (marked *)): 97* %; Test I disease control rating ([5]; 40 ppm (marked *)): 26* %; Test C disease control rating ([6]; 40 ppm (marked *)): 86* %
7 | Fc1cc(-n2c(Br)nc(Cl)c2-c2c(F)ccc(F)c2Cl)ccc1Cl [compound 219] |  |  |  |  |  |  | 96% | 99% | 51% | 97% | 99% | 98% | 
8 | COc1cc(F)c(-c2c(Cl)nc(I)n2-c2ccc(Cl)cc2)c(F)c1 [compound 245] |  |  |  |  |  |  | 97% | 99% | 100% | 99% | 95% | 100% | 
9 | Fc1cc(F)c(-n2c(Cl)nc(Br)c2-c2ccc(Cl)cc2)c(F)c1 [compound 233] |  |  |  |  |  |  |  |  |  |  |  |  | Test G disease control rating [1, 8]: 95* %; Test J disease control rating [2, 8]: 94* %; Test F disease control rating [3, 8]: 0* %; Test D disease control rating [4, 8]: 88* %; Test I disease control rating [5, 8]: 41* %; Test C disease control rating [6, 8]: 96* %
10 | Fc1cccc(F)c1-c1c(Cl)nc(Br)n1Cc1ccc(Cl)cc1 [compound 103] | 98% | 99% | 90% | 92% | 100% | 79% |  |  |  |  |  |  | 
11 | Fc1cc(-n2c(Cl)nc(Cl)c2-c2c(F)ccc(F)c2F)ccc1Cl [compound 135] | 93% | 100% | 0% | 100% | 100% | 99% |  |  |  |  |  |  | 
12 | Fc1ccc(-n2c(Br)nc(Cl)c2-c2c(F)cc(F)cc2F)cc1 [compound 152] |  |  |  |  |  |  | 96% | 99% | 69% | 99% | 89% | 99% | 
13 | Cc1ccc(-n2c(C)nc(Cl)c2-c2c(F)cccc2F)cc1F [compound 175] |  |  |  |  |  |  | 98% | 99% | 82% | 97% | 100% | 97% | 
14 | Cc1nn(C)c(-c2c(F)cc(F)cc2F)c1-c1ccc(Cl)c(F)c1 [compound 71] | 2% | 56% | 0% | 33% | 9% | 47% |  |  |  |  |  |  | 
15 | COc1cc(F)c(-c2c(C)ncn2-c2ccc(Cl)cc2)c(F)c1 [compound 56] |  | 99% |  |  |  |  |  |  |  |  |  |  | Test G disease control rating ([1]; 40 ppm (marked *)): 96* %; Test F disease control rating ([3]; 40 ppm (marked *)): 60* %; Test D disease control rating ([4]; 40 ppm (marked *)): 100* %; Test I disease control rating ([5]; 40 ppm (marked *)): 94* %; Test C disease control rating ([6]; 40 ppm (marked *)): 96* %
16 | Cc1ccc(-n2c(C)nc(Cl)c2-c2c(F)cccc2F)cc1 [compound 82] | 91% | 100% | 100% | 100% | 99% | 90% |  |  |  |  |  |  | 
17 | COc1ccc(F)c(-c2c(Br)ncn2-c2ccc(Cl)cc2)c1F [compound 449] | 97% | 100% | 99% | 100% | 99% | 99% |  |  |  |  |  |  | 
18 | Fc1ccc(-n2cnc(Cl)c2-c2c(F)cccc2F)cc1F [compound 160] |  |  |  |  |  |  | 93% | 98% | 0% | 93% | 28% | 91% | 
19 | Cc1nc(Cl)c(-c2c(F)cccc2F)n1Cc1ccc(Cl)c(F)c1 [compound 120] | 96% | 92% | 0% | 0% | 90% | 98% |  |  |  |  |  |  | 
20 | Cc1nc(Cl)c(-c2c(F)cccc2F)n1-c1ccc(OC(F)(F)F)cc1 [compound 81] | 93% | 100% | 69% | 100% | 98% | 81% |  |  |  |  |  |  | 
21 | Fc1cccc(C(F)(F)F)c1-c1c(Cl)nc(Br)n1-c1ccc(Cl)cc1 [compound 86] | 93% | 99% | 0% | 0% | 27% | 0% |  |  |  |  |  |  | 
22 | Cc1nc(Cl)c(-c2ccc(F)cc2Cl)n1-c1ccc(F)cc1 [compound 187] |  |  |  |  |  |  | 97% | 100% | 94% | 100% | 100% | 99% | 
23 | Cc1nc(Cl)c(-c2c(F)cccc2F)n1-c1cnc2ccccc2c1 [compound 199] |  |  |  |  |  |  | 96% | 95% | 100% | 100% | 98% | 92% | 
24 | Fc1ccc(-n2cnc(Cl)c2-c2c(F)ccc(F)c2F)cc1 [compound 121] | 85% | 97% | 0% | 100% | 89% | 99% |  |  |  |  |  |  | 
25 | Cc1nc(Cl)c(-c2c(F)cccc2F)n1-c1ccc(F)cc1 [compound 83] | 98% | 100% | 99% | 100% | 100% | 97% |  |  |  |  |  |  | 
26 | Cc1nc(Cl)c(-c2c(F)cccc2F)n1-c1ccc(C(F)(F)F)cc1 [compound 92] | 98% | 100% | 0% | 100% | 89% | 76% |  |  |  |  |  |  | 
27 | Cc1nc(Br)n(-c2c(F)cc(F)cc2F)c1-c1ccc(Cl)cc1 [compound 445] | 95% |  |  |  |  |  |  |  |  |  |  |  | Test J disease control rating [2, 8]: 98* %; Test F disease control rating [3, 8]: 92* %; Test D disease control rating [4, 8]: 100* %; Test I disease control rating [5, 8]: 97* %; Test C disease control rating [6, 8]: 97* %
28 | Cc1nc(Cl)c(-c2c(F)ccc(F)c2F)n1-c1ccc(F)cc1 [compound 145] | 100% | 100% | 100% | 100% | 100% | 99% |  |  |  |  |  |  | 
29 | CCOc1cc(F)c(-c2c(Cl)nc(C)n2-c2ccc(Cl)cc2)c(F)c1 [compound 156] |  |  |  |  |  |  |  |  |  |  |  |  | Test G disease control rating [1, 8]: 97* %; Test J disease control rating [2, 8]: 99* %; Test F disease control rating [3, 8]: 99* %; Test D disease control rating [4, 8]: 100* %; Test I disease control rating [5, 8]: 97* %; Test C disease control rating [6, 8]: 98* %
